# Reference: US8445676B2, “Pyrrolotriazine kinase inhibitors” (Bristol-Myers Squibb Company, priority 2008, dated 2013)
# Target: JAK2 (Homo sapiens, UniProt O60674)
# Experiment: JAK2 Tyrosine Kinase Assay
# Assay type: biochemical
# Details: list of named compounds; read-out: IC50 in the JAK2 assay
# Protocol: JAK2 Tyrosine Kinase Assay
# The assays were performed in V-bottom 384-well plates. […] The reaction was initiated by the combination of JAK2 with substrates and test compounds. The reaction was incubated at room temperature for 60 min. and terminated by adding 45 μl of 35 mM EDTA to each sample. The reaction mixture was analyzed on the Caliper LabChip 3000 by electrophoretic separation of the fluorescent substrate and phosphorylated product. […] Compounds were dissolved at 10 mM in dimethylsulfoxide (DMSO) and evaluated at eleven concentrations, each in duplicate. IC50 values were derived by non-linear regression analysis
# Chain of JAK2 (O60674 whole entry): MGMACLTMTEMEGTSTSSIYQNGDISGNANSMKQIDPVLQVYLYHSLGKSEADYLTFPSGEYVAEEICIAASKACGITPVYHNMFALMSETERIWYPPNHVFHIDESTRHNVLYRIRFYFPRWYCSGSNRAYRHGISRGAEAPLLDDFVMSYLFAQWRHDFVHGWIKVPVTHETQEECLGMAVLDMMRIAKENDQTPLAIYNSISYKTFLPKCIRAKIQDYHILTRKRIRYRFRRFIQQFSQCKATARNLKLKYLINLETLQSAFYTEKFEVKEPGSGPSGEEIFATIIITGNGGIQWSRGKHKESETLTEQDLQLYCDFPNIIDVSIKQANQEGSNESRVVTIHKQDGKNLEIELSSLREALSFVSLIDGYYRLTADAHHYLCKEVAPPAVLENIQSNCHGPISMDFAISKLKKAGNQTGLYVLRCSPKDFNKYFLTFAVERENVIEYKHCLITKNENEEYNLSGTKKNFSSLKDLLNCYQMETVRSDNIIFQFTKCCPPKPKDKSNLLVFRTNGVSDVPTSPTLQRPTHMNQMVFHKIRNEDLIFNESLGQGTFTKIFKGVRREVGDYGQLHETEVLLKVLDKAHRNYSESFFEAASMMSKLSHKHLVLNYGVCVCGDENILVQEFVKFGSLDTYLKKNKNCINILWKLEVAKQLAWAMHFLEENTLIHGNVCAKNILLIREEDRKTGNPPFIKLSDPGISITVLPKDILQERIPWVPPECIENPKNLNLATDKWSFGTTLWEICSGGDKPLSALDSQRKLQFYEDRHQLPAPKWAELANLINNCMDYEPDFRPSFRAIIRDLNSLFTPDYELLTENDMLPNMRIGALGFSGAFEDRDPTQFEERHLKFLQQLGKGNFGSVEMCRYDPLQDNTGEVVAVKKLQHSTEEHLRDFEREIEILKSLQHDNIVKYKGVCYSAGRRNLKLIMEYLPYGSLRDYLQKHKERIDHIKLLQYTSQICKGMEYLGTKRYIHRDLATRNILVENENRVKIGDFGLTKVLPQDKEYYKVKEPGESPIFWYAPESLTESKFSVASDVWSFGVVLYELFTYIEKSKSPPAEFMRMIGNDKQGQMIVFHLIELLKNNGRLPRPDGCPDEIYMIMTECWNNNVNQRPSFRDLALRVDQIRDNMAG
row,Structure (SMILES),IC50 [nM]
1,"Cc1cc(Nc2nc(N3CCN(C(=O)c4cccnc4Cl)CC3)nn3cccc23)n[nH]1 [2-(4-((2-chloro-3-pyridinyl)carbonyl)-1-piperazinyl)-N-(5-methyl-1H-pyrazol-3-yl)pyrrolo[2,1-f][1,2,4]triazin-4-amine]",≤ 5
2,"Cc1cc(Nc2nc(N3CCN(C(=O)Cc4ccccc4Cl)CC3)nn3cccc23)n[nH]1 [2-(4-((2-chlorophenyl)acetyl)-1-piperazinyl)-N-(5-methyl-1H-pyrazol-3-yl)pyrrolo[2,1-f][1,2,4]triazin-4-amine]",≤ 5
3,"CO[C@@H](C(=O)N1CCN(c2nc(Nc3cc(C)[nH]n3)c3cccn3n2)CC1)c1ccccc1 [2-(4-((2R)-2-methoxy-2-phenylacetyl)-1-piperazinyl)-N-(5-methyl-1H-pyrazol-3-yl)pyrrolo[2,1-f][1,2,4]triazin-4-amine]",≤ 5
4,"Cc1cc(Nc2nc(N3CCN(C(=O)c4sc5ccccc5c4Cl)CC3)nn3cccc23)n[nH]1 [2-(4-((3-chloro-1-benzothiophene-2-yl)carbonyl)-1-piperazinyl)-N-(5-methyl-1H-pyrazol-3-yl)pyrrolo[2,1-f][1,2,4]triazin-4-amine]",≤ 5
5,"Cc1cc(Nc2nc(N3CCN(C(=O)Cc4cccc(Cl)c4)CC3)nn3cccc23)n[nH]1 [2-(4-((3-chlorophenyl)acetyl)-1-piperazinyl)-N-(5-methyl-1H-pyrazol-3-yl)pyrrolo[2,1-f][1,2,4]triazin-4-amine]",≤ 5
6,"Cc1cc(Nc2nc(N3CCN(C(=O)Cc4cccc(F)c4)CC3)nn3cccc23)n[nH]1 [2-(4-((3-fluorophenyl)acetyl)-1-piperazinyl)-N-(5-methyl-1H-pyrazol-3-yl)pyrrolo[2,1-f][1,2,4]triazin-4-amine]",≤ 5
7,"Cc1cccc(CC(=O)N2CCN(c3nc(Nc4cc(C)[nH]n4)c4cccn4n3)CC2)c1 [2-(4-((3-methylphenyl)acetyl)-1-piperazinyl)-N-(5-methyl-1H-pyrazol-3-yl)pyrrolo[2,1-f][1,2,4]triazin-4-amine]",≤ 5
8,"Cc1cc(Nc2nc(N3CCN(C(=O)Cc4ccc(Cl)cc4F)CC3)nn3cccc23)n[nH]1 [2-(4-((4-chloro-2-fluorophenyl)acetyl)-1-piperazinyl)-N-(5-methyl-1H-pyrazol-3-yl)pyrrolo[2,1-f][1,2,4]triazin-4-amine]",≤ 5
9,"CCOc1cc(F)c(CC(=O)N2CCN(c3nc(Nc4cc(C)[nH]n4)c4cccn4n3)CC2)c(F)c1 [2-(4-((4-ethoxy-2,6-difluorophenyl)acetyl)-1-piperazinyl)-N-(5-methyl-1H-pyrazol-3-yl)pyrrolo[2,1-f][1,2,4]triazin-4-amine]",≤ 5
10,"COc1ccc(CC(=O)N2CCN(c3nc(Nc4cc(C)[nH]n4)c4cccn4n3)CC2)cc1 [2-(4-((4-methoxyphenyl)acetyl)-1-piperazinyl)-N-(5-methyl-1H-pyrazol-3-yl)pyrrolo[2,1-f][1,2,4]triazin-4-amine]",≤ 5
11,"Cc1cc(Nc2nc(N3CCN(C(=O)COCc4ccccc4)CC3)nn3cccc23)n[nH]1 [2-(4-((benzyloxy)acetyl)-1-piperazinyl)-N-(5-methyl-1H-pyrazol-3-yl)pyrrolo[2,1-f][1,2,4]triazin-4-amine]",≤ 5
12,"Cc1cc(Nc2nc(N3CCN(C(=O)C4Cc5ccccc54)CC3)nn3cccc23)n[nH]1 (stereo not shown) [2-(4-(bicyclo[4.2.0]octa-1,3,5-trien-7-ylcarbonyl)-1-piperazinyl)-N-(5-methyl-1H-pyrazol-3-yl)pyrrolo[2,1-f][1,2,4]triazin-4-amine]",≤ 5
13,"Cc1cc(Nc2nc(N3CCN(C(=O)CC4CCCCC4)CC3)nn3cccc23)n[nH]1 [2-(4-(cyclohexylacetyl)-1-piperazinyl)-N-(5-methyl-1H-pyrazol-3-yl)pyrrolo[2,1-f][1,2,4]triazin-4-amine]",≤ 5
14,"Cc1cc(Nc2nc(N3CCN(C(=O)c4ccccc4C#N)CC3)nn3cccc23)n[nH]1 [2-((4-(4-((5-methyl-1H-pyrazol-3-yl)amino)pyrrolo[2,1-f][1,2,4]triazin-2-yl)-1-piperazinyl)carbonyl)benzonitrile]",≤ 5
15,"Cc1cc(Nc2nc(N3CCN(C(=O)Cc4cccc(C#N)c4)CC3)nn3cccc23)n[nH]1 [3-(2-(4-(4-((5-methyl-1H-pyrazol-3-yl)amino)pyrrolo[2,1-f][1,2,4]triazin-2-yl)-1-piperazinyl)-2-oxoethyl)benzonitrile]",≤ 5
16,"Cc1cc(Nc2nc(N3CCN(C(=O)C4CC(=O)c5ccccc54)CC3)nn3cccc23)n[nH]1 (stereo not shown) [3-((4-(4-((5-methyl-1H-pyrazol-3-yl)amino)pyrrolo[2,1-f][1,2,4]triazin-2-yl)-1-piperazinyl)carbonyl)-1-indanone]",≤ 5
17,"Cc1cc(Nc2nc(N3CCN(C(=O)c4cccc(C#N)c4)CC3)nn3cccc23)n[nH]1 [3-((4-(4-((5-methyl-1H-pyrazol-3-yl)amino)pyrrolo[2,1-f][1,2,4]triazin-2-yl)-1-piperazinyl)carbonyl)benzonitrile]",≤ 5

row,Structure (SMILES),IC50 [nM]
1,"Cc1cc(Nc2nc(N3CCN(C(=O)[C@H](O)c4ccccc4)CC3)nn3cccc23)n[nH]1 [(1R)-2-(4-(4-((5-methyl-1H-pyrazol-3-yl)amino)pyrrolo[2,1-f][1,2,4]triazin-2-yl)-1-piperazinyl)-2-oxo-1-phenylethanol]",≤ 5
2,"Cc1cc(Nc2nc(N3CCN(C(=O)[C@@H](O)c4ccccc4)CC3)nn3cccc23)n[nH]1 [(1S)-2-(4-(4-((5-methyl-1H-pyrazol-3-yl)amino)pyrrolo[2,1-f][1,2,4]triazin-2-yl)-1-piperazinyl)-2-oxo-1-phenylethanol]",≤ 5
3,"Cc1cc(Nc2nc(N3CCN(C(=O)[C@H](O)CCc4ccccc4)CC3)nn3cccc23)n[nH]1 [(2R)-1-(4-(4-((5-methyl-1H-pyrazol-3-yl)amino)pyrrolo[2,1-f][1,2,4]triazin-2-yl)-1-piperazinyl)-1-oxo-4-phenyl-2-butanol]",≤ 5
4,"Cc1cc(Nc2nc(N3CCN(C(=O)[C@](C)(O)c4ccc(F)cc4)CC3)nn3cccc23)n[nH]1 [(2R)-2-(4-fluorophenyl)-1-(4-(4-((5-methyl-1H-pyrazol-3-yl)amino)pyrrolo[2,1-f][1,2,4]triazin-2-yl)-1-piperazinyl)-1-oxo-2-propanol]",≤ 5
5,"Cc1cc(Nc2nc(N3CCN(C(=O)[C@@H](O)Cc4ccccc4)CC3)nn3cccc23)n[nH]1 [(2S)-1-(4-(4-((5-methyl-1H-pyrazol-3-yl)amino)pyrrolo[2,1-f][1,2,4]triazin-2-yl)-1-piperazinyl)-1-oxo-3-phenyl-2-propanol]",≤ 5
6,"CC(=O)NC(C(=O)N1CCN(c2nc(Nc3cc(C)[nH]n3)c3cccn3n2)CC1)c1ccccc1 (stereo not shown) [N-(2-(4-(4-((5-methyl-1H-pyrazol-3-yl)amino)pyrrolo[2,1-f][1,2,4]triazin-2-yl)-1-piperazinyl)-2-oxo-1-phenylethyl)acetamide]",≤ 5
7,"CC(=O)Nc1ccccc1C(=O)N1CCN(c2nc(Nc3cc(C)[nH]n3)c3cccn3n2)CC1 [N-(2-((4-(4-((5-methyl-1H-pyrazol-3-yl)amino)pyrrolo[2,1-f][1,2,4]triazin-2-yl)-1-piperazinyl)carbonyl)phenyl)acetamide]",≤ 5
8,"CC(=O)Nc1cccc(C(=O)N2CCN(c3nc(Nc4cc(C)[nH]n4)c4cccn4n3)CC2)c1 [N-(3-((4-(4-((5-methyl-1H-pyrazol-3-yl)amino)pyrrolo[2,1-f][1,2,4]triazin-2-yl)-1-piperazinyl)carbonyl)phenyl)acetamide]",≤ 5
9,"CC(=O)Nc1ccc(C(=O)N2CCN(c3nc(Nc4cc(C)[nH]n4)c4cccn4n3)CC2)cc1 [N-(4-((4-(4-((5-methyl-1H-pyrazol-3-yl)amino)pyrrolo[2,1-f][1,2,4]triazin-2-yl)-1-piperazinyl)carbonyl)phenyl)acetamide]",≤ 5
10,"Cc1cc(Nc2nc(N3CCN(C(=O)c4csnn4)CC3)nn3cccc23)n[nH]1 [N-(5-methyl-1H-pyrazol-3-yl)-2-(4-(1,2,3-thiadiazol-4-ylcarbonyl)-1-piperazinyl)pyrrolo[2,1-f][1,2,4]triazin-4-amine]",≤ 5
11,"Cc1cc(Nc2nc(N3CCN(C(=O)c4cnon4)CC3)nn3cccc23)n[nH]1 [N-(5-methyl-1H-pyrazol-3-yl)-2-(4-(1,2,5-oxadiazol-3-ylcarbonyl)-1-piperazinyl)pyrrolo[2,1-f][1,2,4]triazin-4-amine]",≤ 5
12,"Cc1cc(Nc2nc(N3CCN(C(=O)c4ncco4)CC3)nn3cccc23)n[nH]1 [N-(5-methyl-1H-pyrazol-3-yl)-2-(4-(1,3-oxazol-2-ylcarbonyl)-1-piperazinyl)pyrrolo[2,1-f][1,2,4]triazin-4-amine]",≤ 5
13,"Cc1cc(Nc2nc(N3CCN(C(=O)c4cnco4)CC3)nn3cccc23)n[nH]1 [N-(5-methyl-1H-pyrazol-3-yl)-2-(4-(1,3-oxazol-5-ylcarbonyl)-1-piperazinyl)pyrrolo[2,1-f][1,2,4]triazin-4-amine]",≤ 5
14,"Cc1cc(Nc2nc(N3CCN(C(=O)c4cc[nH]n4)CC3)nn3cccc23)n[nH]1 [N-(5-methyl-1H-pyrazol-3-yl)-2-(4-(1H-pyrazol-3-ylcarbonyl)-1-piperazinyl)pyrrolo[2,1-f][1,2,4]triazin-4-amine]",≤ 5
15,"Cc1cc(Nc2nc(N3CCN(C(=O)c4ccccc4COc4ccccc4)CC3)nn3cccc23)n[nH]1 [N-(5-methyl-1H-pyrazol-3-yl)-2-(4-(2-(phenoxymethyl)benzoyl)-1-piperazinyl)pyrrolo[2,1-f][1,2,4]triazin-4-amine]",≤ 5
16,"Cc1cc(Nc2nc(N3CCN(C(=O)c4ccccc4OC(F)(F)F)CC3)nn3cccc23)n[nH]1 [N-(5-methyl-1H-pyrazol-3-yl)-2-(4-(2-(trifluoromethoxy)benzoyl)-1-piperazinyl)pyrrolo[2,1-f][1,2,4]triazin-4-amine]",≤ 5
17,"Cc1cc(Nc2nc(N3CCN(C(=O)c4ccccc4C(F)(F)F)CC3)nn3cccc23)n[nH]1 [N-(5-methyl-1H-pyrazol-3-yl)-2-(4-(2-(trifluoromethyl)benzoyl)-1-piperazinyl)pyrrolo[2,1-f][1,2,4]triazin-4-amine]",≤ 5
